# Like-named read-outs stand apart in the source and are kept apart here.
# Assays:
# [1] = target: T1, human recombinant histamine H2 receptor (Homo sapiens, UniProt P25021); assay: Histamine H2 radioligand binding ([125I]Aminopotentidine)
# T1 construct: expressed in transfected cells; host or cells: CHO-K1 cells
# How it was run: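 This radioligand binding assay measured displacement of [125I]Aminopotentidine from recombinant human histamine H2 receptors. Compounds were dissolved in 1% DMSO vehicle. Specific binding was calculated by subtracting non-specific binding, defined using 3 μM Tiotidine, and activity was reported as percentage inhibition of that specific binding.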
# [2] = target: T2, human recombinant adrenergic α1D receptor (Homo sapiens, UniProt P25100); assay: Adrenergic α1D radioligand binding ([3H]Prozosin); design: Inhibition of ligand binding, Adren. alpha1D: concentration or dose not given beside the values; conditions: for Inhibition of ligand binding, Adren. alpha1D: percent inhibition of specific binding; for inhibition at 1 µM: compounds screened at 1 μM, read-out: Inhibition of ligand binding, Adren. alpha1D (percent inhibition of specific binding)
# T2 construct: expressed in transfected cells; host or cells: HEK-293 cells
# T2 sequence (P25100 1-572): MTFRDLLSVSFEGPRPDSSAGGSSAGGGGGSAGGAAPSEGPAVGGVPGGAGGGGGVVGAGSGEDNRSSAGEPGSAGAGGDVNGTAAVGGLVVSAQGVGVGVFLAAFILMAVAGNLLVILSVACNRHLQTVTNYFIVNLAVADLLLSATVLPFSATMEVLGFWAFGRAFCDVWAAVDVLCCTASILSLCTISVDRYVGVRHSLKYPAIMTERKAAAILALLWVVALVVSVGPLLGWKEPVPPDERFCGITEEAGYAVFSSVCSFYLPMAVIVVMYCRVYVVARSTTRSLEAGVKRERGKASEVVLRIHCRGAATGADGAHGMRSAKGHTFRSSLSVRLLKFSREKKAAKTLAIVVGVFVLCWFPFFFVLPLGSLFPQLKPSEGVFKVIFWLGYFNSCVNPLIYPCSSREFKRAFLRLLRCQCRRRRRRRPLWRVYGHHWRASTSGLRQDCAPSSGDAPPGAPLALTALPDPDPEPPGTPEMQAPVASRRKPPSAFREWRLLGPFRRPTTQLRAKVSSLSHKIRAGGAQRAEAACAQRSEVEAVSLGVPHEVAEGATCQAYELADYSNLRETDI
# Experimental: Compounds of invention were incubated with 0.6 nM [^3H]Prozosin for 60 minutes at 25° C. Non-specific binding was estimated in the presence of 10 μM phentolamine. Receptor proteins were filtered and washed, the filters were then counted to determine [^3H]Prozosin specifically bound. […] Biochemical assay results are presented as the percent inhibition of specific binding in Table 6.
# [3] = target: T3, human recombinant dopamine D2L receptor (Homo sapiens, UniProt P14416); assay: Dopamine D2L radioligand binding ([3H]Spiperone); conditions: for Inhibition of ligand binding, Dop. D2L: percent inhibition of specific binding; for inhibition at 1 µM: compounds screened at 1 μM, read-out: Inhibition of ligand binding, Dop. D2L (percent inhibition of specific binding)
# T3 construct: expressed in transfected cells; host or cells: CHO cells
# T3 sequence (P14416 whole entry): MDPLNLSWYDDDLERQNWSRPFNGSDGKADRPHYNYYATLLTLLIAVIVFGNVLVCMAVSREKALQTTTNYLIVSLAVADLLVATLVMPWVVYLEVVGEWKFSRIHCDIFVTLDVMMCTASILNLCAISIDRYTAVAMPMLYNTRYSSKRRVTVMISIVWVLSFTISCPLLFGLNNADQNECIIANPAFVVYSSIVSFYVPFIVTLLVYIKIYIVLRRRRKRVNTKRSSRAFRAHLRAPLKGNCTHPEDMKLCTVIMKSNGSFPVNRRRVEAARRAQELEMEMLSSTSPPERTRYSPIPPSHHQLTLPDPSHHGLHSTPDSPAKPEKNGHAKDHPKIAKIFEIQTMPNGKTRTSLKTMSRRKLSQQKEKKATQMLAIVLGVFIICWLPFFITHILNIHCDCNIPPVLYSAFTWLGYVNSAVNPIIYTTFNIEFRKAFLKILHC
# Experimental: Non-specific binding was estimated in the presence of 10 μM Haloperidol. Receptor proteins were filtered and washed, the filters were then counted to determine [^3H]Spiperone specifically bound. […] Biochemical assay results are presented as the percent inhibition of specific binding in Table 6.
# [4] = target: T4, human recombinant adrenergic α2B receptor (Homo sapiens, UniProt P18089); assay: Adrenergic α2B radioligand binding ([3H]Rauwolscine); design: Inhibition of ligand binding, Adren. alpha2B: concentration or dose not given beside the values; conditions: for Inhibition of ligand binding, Adren. alpha2B: percent inhibition of specific binding; for inhibition at 1 µM: compounds screened at 1 μM, read-out: Inhibition of ligand binding, Adren. alpha2B (percent inhibition of specific binding)
# T4 construct: expressed in transfected cells; host or cells: CHO-K1 cells
# T4 sequence (P18089 1-450): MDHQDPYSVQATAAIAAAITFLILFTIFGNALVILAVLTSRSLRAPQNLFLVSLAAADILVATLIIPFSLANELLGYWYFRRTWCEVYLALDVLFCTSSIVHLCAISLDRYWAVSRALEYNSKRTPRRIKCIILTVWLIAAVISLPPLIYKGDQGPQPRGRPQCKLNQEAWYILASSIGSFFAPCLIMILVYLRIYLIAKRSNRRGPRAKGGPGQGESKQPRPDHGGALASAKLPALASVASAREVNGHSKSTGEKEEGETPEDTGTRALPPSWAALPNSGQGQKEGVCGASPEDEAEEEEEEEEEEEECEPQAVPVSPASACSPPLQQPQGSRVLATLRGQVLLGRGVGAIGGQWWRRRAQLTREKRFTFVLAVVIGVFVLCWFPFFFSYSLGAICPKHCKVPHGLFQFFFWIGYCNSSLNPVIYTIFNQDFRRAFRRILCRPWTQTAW
# Experimental: To evaluate in radioligand binding assays the activity of compounds of the invention, human recombinant adrenergic α2B receptor expressed in Chinese hamster ovary (CHO-K1) cells (Uhlen S et al. Eur J. Pharmacol. 343(1):93, 1998) in a modified Tris-HCl buffer (50 mM Tris-HCl, pH 7.4, 12.5 mM MgCl2, 1 mM EDTA, 0.2% BSA) was used. Compounds of the invention were incubated with 2.5 nM [^3H]Rauwolscine for 60 minutes at 25° C. Non-specific binding was estimated in the presence of 10 μM Prozosin. Receptor proteins were filtered and washed, the filters were then counted to determine [^3H]Rauwolscine specifically bound. […] Biochemical assay results are presented as the percent inhibition of specific binding in Table 6.
# [5] = percent inhibition of specific binding, screened at 1 μM, read-out: Inhibition of ligand binding, Hist. H2
# [6] = compounds screened at 1 μM, read-out: Inhibition of ligand binding, Hist. H2 (percent inhibition of specific binding)
# T1 sequence (P25021 whole entry): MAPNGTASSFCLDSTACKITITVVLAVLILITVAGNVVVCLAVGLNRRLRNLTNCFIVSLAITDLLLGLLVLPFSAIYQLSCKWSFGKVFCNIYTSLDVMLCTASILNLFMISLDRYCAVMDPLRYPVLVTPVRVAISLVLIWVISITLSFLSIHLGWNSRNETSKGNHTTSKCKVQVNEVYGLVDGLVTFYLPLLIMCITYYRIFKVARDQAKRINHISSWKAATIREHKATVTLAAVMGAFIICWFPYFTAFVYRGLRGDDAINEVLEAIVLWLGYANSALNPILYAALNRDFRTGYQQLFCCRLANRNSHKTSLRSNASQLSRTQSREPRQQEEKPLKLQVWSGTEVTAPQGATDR
SMILES,"inhibition at 1 µM [1, 5]","Inhibition of ligand binding, Adren. alpha1D [2]","Inhibition of ligand binding, Dop. D2L [3]","Inhibition of ligand binding, Adren. alpha2B [4]","inhibition at 1 µM [1, 6]",inhibition at 1 µM [2],inhibition at 1 µM [3],inhibition at 1 µM [4]
"CN1CCc2c(c3cc(Cl)ccc3n2CC(=O)N2CC[S+]([O-])CC2)C1 [Compound 296, 2-(8-Chloro-2-methyl-1,2,3,4-tetrahydro-pyrido[4,3-b]indol-5-yl)-1-(1-oxo-1l4-thiomorpholin-4-yl)-ethanone]",-4%,3%,3%,−8%,–,–,–,–
"CC(=O)N1CCN(C(=O)Cn2c3c(c4cc(Cl)ccc42)CN(C)CC3)CC1 [Compound 297, 1-(4-Acetyl-piperazin-1-yl)-2-(8-chloro-2-methyl-1,2,3,4-tetrahydro-pyrido[4,3-b]indol-5-yl)-ethanone]",3%,15%,0%,7%,–,–,–,–
"CC1CCCCN1C(=O)Cn1c2c(c3cc(Cl)ccc31)CN(C)CC2 (centres unmarked) [Compound 321, 2-(8-chloro-1,2,3,4-tetrahydro-2-methylpyrido[4,3-b]indol-5-yl)-1-(2-methylpiperidin-1-yl)ethanone]",25%,4%,−1%,25%,–,–,–,–
"Cc1ccc2c(c1)c1c(n2CCc2cnc(C)cn2)CCN(C)C1 [Compound 322, 2,8-dimethyl-5-(2-(5-methylpyrazin-2-yl)ethyl)-2,3,4,5-tetrahydro-1H-pyrido[4,3-b]indole]",20%,66%,5%,115%,–,–,–,–
"Cc1ccc2c(c1)c1c(n2CCc2cnc(C)nc2)CCN(C)C1 [Compound 323, 2,3,4,5-tetrahydro-2,8-dimethyl-5-(2-(2-methylpyrimidin-5-yl)ethyl)-1H-pyrido[4,3-b]indole]",17%,49%,8%,62%,–,–,–,–
"CN1CCc2c(c3cc(Cl)ccc3n2CCCc2ccc(C(F)(F)F)nc2)C1 [Compound 324, 8-chloro-5-(3-(6-(trifluoromethyl)pyridin-3-yl)propyl)-2,3,4,5-tetrahydro-2-methyl-1H-pyrido[4,3-b]indole]",63%,53%,28%,98%,–,–,–,–
"CC1CCN(C(=O)CCn2c3c(c4cc(Cl)ccc42)CN(C)CC3)CC1 [Compound 325, 3-(8-chloro-1,2,3,4-tetrahydro-2-methylpyrido[4,3-b]indol-5-yl)-1-(4-methylpiperidin-1-yl)propan-1-one]",22%,36%,−3%,58%,–,–,–,–
"CN1CCc2c(c3cc(Cl)ccc3n2CCC(=O)N2CCCCC2)C1 [Compound 326, 3-(8-chloro-1,2,3,4-tetrahydro-2-methylpyrido[4,3-b]indol-5-yl)-1-(piperidin-1-yl)propan-1-one]",12%,40%,−5%,52%,–,–,–,–
"CN1CCc2c(c3cc(Cl)ccc3n2CCC(=O)N2CCOCC2)C1 [Compound 328, 3-(8-chloro-1,2,3,4-tetrahydro-2-methylpyrido[4,3-b]indol-5-yl)-1-morpholinopropan-1-one]",4%,23%,6%,21%,–,–,–,–
"Cc1ccc2c(c1)c1c(n2CC(=O)N2CCOCC2)CCN(C)C1 [Compound 330, 2-(1,2,3,4-tetrahydro-2,8-dimethylpyrido[4,3-b]indol-5-yl)-1-morpholinoethanone]",6%,8%,−8%,6%,–,–,–,–
"Cc1ccc2c(c1)c1c(n2CCCc2ccc(C(F)(F)F)nc2)CCN(C)C1 [Compound 331, 5-(3-(6-(trifluoromethyl)pyridin-3-yl)propyl)-2,3,4,5-tetrahydro-2,8-dimethyl-1H-pyrido[4,3-b]indole]",73%,63%,20%,105%,–,–,–,–
"CCOc1ccc(CCn2c3c(c4cc(C)ccc42)CN(C)CC3)cc1 [Compound 334, 5-[2-(4-Ethoxy-phenyl)-ethyl]-2,8-dimethyl-2,3,4,5-tetrahydro-1H-pyrido[4,3-b]indole]",91%,110%,76%,111%,–,–,–,–
"Cc1ccc2c(c1)c1c(n2CCc2ccc(OC(C)(C)C)cc2)CCN(C)C1 [Compound 335, 5-(4-tert-butoxyphenethyl)-2,3,4,5-tetrahydro-2,8-dimethyl-1H-pyrido[4,3-b]indole]",77%,91%,44%,104%,–,–,–,–
"COc1ccc(CCn2c3c(c4cc(Cl)ccc42)CN(C)CC3)cc1 [Compound 336, 8-Chloro-5-[2-(4-methoxy-phenyl)-ethyl]-2-methyl-2,3,4,5-tetrahydro-1H pyrido[4,3-b]indole]",101%,98%,82%,103%,–,–,–,–
"COc1ccc(CCn2c3c(c4cc(Cl)ccc42)CN(C)CC3)cc1F [Compound 337, 5-(3-fluoro-4-methoxyphenethyl)-8-chloro-2,3,4,5-tetrahydro-2-methyl-1H-pyrido[4,3-b]indole]",92%,97%,81%,117%,–,–,–,–
"CN1CCc2c(c3ccncc3n2CCc2ccccn2)C1 [Compound 481, 7-aza-2-methyl-5-(2-(pyridin-2-yl)ethyl)-2,3,4,5-tetrahydro-1H-pyrido[4,3-b]indole]",–,–,–,–,-17%,3%,16%,19%
"CN1CCc2c(c3ncccc3n2CCc2ccncc2)C1 [Compound 482, 9-aza-2-methyl-5-(2-(pyridin-4-yl)ethyl)-2,3,4,5-tetrahydro-1H-pyrido[4,3-b]indole]",–,–,–,–,-9%,2%,7%,10%

# — patent US9096591B2, “Tetracyclic compounds” (Medivation Technologies, Inc., priority 2007, dated 2015)
